From patent US8293788B2, “2-phenylpropionic acid derivatives and pharmaceutical compositions containing them” (priority 2004, dated 2012) come the findings set out here.

Series [1] concerns C5a induced PMNs chemotaxis. Nature of the series: C5a induced PMN chemotaxis assay. It is filed as cell-based. The following applies: human PMNs; for inhibition at 0.01 µM: compound at 10^−8M, read-out: PMN migration by C5a % of inhibition (10^−8M); for PMN migration by C5a % of inhibition: tested at 10^−6M. Here is the method: (§1) The compounds of the invention of formula (I) were evaluated in vitro for their ability to inhibit chemotaxis of polymorphonucleate leukocytes (hereinafter referred to as PMNs) and monocytes induced by the fractions of IL-8 and GRO-α and C5a. For this purpose, in order to isolate the PMNs from heparinized human blood, taken from healthy adult volunteers, mononucleates were removed by means of sedimentation on dextran (according to the procedure disclosed by W. I. Ming et al., J. Immunol., 138, 1469, 1987) and red blood cells by a hypotonic solution. The cell vitality was calculated by exclusion with Trypan blue, whilst the ratio of the circulating polymorphonucleates was estimated on the cytocentrifugate after staining with Diff Quick.
In the C5a induced chemotaxis essay the fractions hrC5a and hrC5a-desArg (Sigma) were used as stimulating agents in chemotaxis experiments, obtaining practically identical results, Lyophilized C5a was dissolved in a volume of HBSS containing 0.2% BSA so as to obtain a stock solution having a concentration of 10^−5 M, to be diluted in HBSS to a concentration of 10^−9 M, for the chemotaxis assays.
(§2) In the chemotaxis experiments, the PMNs were incubated with the compounds of the invention of formula (I) for 15′ at 37° C. in an atmosphere containing 5% CO2.
The chemotactic activity of the C5a was evaluated on human circulating polymorphonucleates (PMNs) resuspended in HBSS at a concentration of 1.5×10^6 PMNs per ml.
(§3) During the chemotaxis assay (according to W. Falket et al., J. Immunol. Methods, 33, 239, 1980) PVP-free filters with a porosity of 5 μm and microchambers suitable for replication were used.
(§4) The compounds of the invention in formula (I) were evaluated at a concentration ranging between 10^−6 and 10^−10 M; for this purpose they were added, at the same concentration, both to the lower pores and the upper pores of the microchamber. Evaluation of the ability of the compounds of the invention of formula (I) to inhibit the chemotaxis of human monocytes was carried out according to the method disclosed by Van Damme J. et al. (Eur. J. Immunol., 19, 2367, 1989).

For series [2], the system named is human PMNs chemotaxis induced by IL-8. Nature of the series: IL-8 induced PMN chemotaxis assay. The class given is cell-based. Conditions: compound at 10^−9M, read-out: PMN migration by IL-8 % of inhibition (10^−9M). Here is the method: as §1
In the IL-8 induced chemotaxis assay human recombinant IL-8 (Pepro Tech) was used as stimulating agents in the chemotaxis experiments: the lyophilized protein was dissolved in a volume of HBSS containing 0.2% bovin serum albumin (BSA) so thus to obtain a stock solution having a concentration of 10^−5 M to be diluted in HBSS to a concentration of 10^−9 M, for the chemotaxis assays.
as §2, §3, §4

Series [3] can be described thus: Protein binding in rat plasma (ultrafiltration). Conditions: 37° C. It is filed as in vitro ADME. Here is the method: Protein Binding was determined as follows: Duplicate rat plasma samples of each compound at 50 μg/mL concentration were incubated at 37° C. for 20 minutes under gentle shaking. Then samples were ultrafiltrated through Centrifree® micropartition devices by centrifugation at 1500 g for 15 minutes. The ultrafiltrate was subjected to HPLC-MS/MS quantitative analysis (Column Luna C18, 150×2 mm ID 5 μm (Phenomenex), mobile phase: eluent A) 0.02M HCOO^−NH4^+ (pH 4.3 with HCOOH); eluent B) CH3OH).

A short description of series [4]: Pharmacokinetic profile in male mice after intravenous and oral administration. The class given is in vivo. The following applies: mouse, plasma; for bioavailability: intravenous and oral administration. Here is the method:
The pharmacokinetic profile (t1/2, oral bioavailability, etc) of claimed compounds was evaluated in male mice after intravenous and oral administration. The pharmacokinetic analysis was performed using compounds plasmatic concentrations at different times. The data were evaluated by Kinetica 2000™, Version 3.0 Software [InnaPhase Corporation, World headquarters, 1700 Race Street, Philadelphia, Pa. 19103 USA].

Series [5] concerns GRO-α induced PMN chemotaxis. Description: GRO-α induced PMN chemotaxis assay. The class given is cell-based. Conditions: human PMNs; for inhibition at 0.01 µM: compound at 10^−8M, read-out: PMN migration by GROα % of inhibition (10^−8M); for PMN migration by GROα % of inhibition: tested at 10^−6M. Here is the method: as §1
GRO-α induced chemotaxis inhibition was evaluated in an analogous assay.
as §2, §3, §4

For `CC(C)Cc1ccc([C@@H](C)C(=O)NCCCN2CCCCC2)cc1` [reference compound], the inhibition at 0.01 µM was determined as 55 ± 6% in series [1] and 39 ± 10% in series [5]. In series [2], the inhibition at 0.001 µM was 44 ± 5%. In addition, in series [3], the fraction unbound at 20 min, 50 μg/mL is 0.15. In series [4], this compound showed a half-life of 1.7 h. The bioavailability in series [4] worked out at 30%.
As to `C[C@@H](C(=O)[N-]S(C)(=O)=O)c1ccc(OS(=O)(=O)C(F)(F)F)cc1.[Na+]`, the “PMN migration by C5a % of inhibition” value in series [1] is recorded as “Inactive^#”. Moreover, the inhibition at 0.001 µM in series [2] came out at 58 ± 9%. The unbound share (fraction unbound) at 20 min, 50 μg/mL in series [3] came out at 0.01. In series [4], this compound gave a half-life of 24.7 h and a bioavailability of around 100%. Also, the inhibition at 0.01 µM in series [5] is 61 ± 6%.
For the compound `CC(C)Cc1ccc([C@@H](C)C(=O)NS(C)(=O)=O)cc1` [reference compound], the “PMN migration by C5a % of inhibition” value in series [1] is “Inactive^#”. Further, the inhibition at 0.001 µM in series [2] came to 50 ± 12%. Further, the fraction unbound at 20 min, 50 μg/mL in series [3] is 0.0002. Further, in series [4], the half-life is 0.4 h and the bioavailability stood at 80%. Further, the inhibition at 0.01 µM in series [5] was found to be 10 ± 18%.
`CC(C)Cc1ccc([C@@H](C)C(N)=O)cc1` [reference compound]: the “PMN migration by C5a % of inhibition” value in series [1] was “Inactive^#”. Moreover, the inhibition at 0.001 µM in series [2] is 57 ± 12%. Moreover, the free fraction (fraction unbound) at 20 min, 50 μg/mL in series [3] is 0.016. In series [4], this compound gave a half-life of 0.4 h and a bioavailability of 35%. Moreover, the inhibition at 0.01 µM in series [5] amounted to 10 ± 7%.
Turning to `C[C@@H](C(=O)NCCCN1CCCC1)c1ccc(OS(=O)(=O)C(F)(F)F)cc1.Cl`, the inhibition at 0.01 µM in series [1] worked out at 67 ± 10%. Moreover, the inhibition at 0.001 µM in series [2] turned out to be 51 ± 13%. In series [3], the free fraction (fraction unbound) at 20 min, 50 μg/mL was 0.359. In series [4], this compound showed a half-life of 2.4 h and a bioavailability of 90%. The “PMN migration by GROα % of inhibition” value in series [5] was “Inactive^#”.
Regarding `C[C@@H](C(N)=O)c1ccc(OS(=O)(=O)C(F)(F)F)cc1`, in series [1], the “PMN migration by C5a % of inhibition” value is given as “Inactive^#”. Also, in series [2], the inhibition at 0.001 µM worked out at 64 ± 2%. Also, the fraction unbound at 20 min, 50 μg/mL in series [3] was 0.062. For the same compound, in series [4], the half-life was 2.3 h and the bioavailability amounted to 95%. For the same compound, the inhibition at 0.01 µM in series [5] came out at 61 ± 3%.
Consider `C[C@@H](C(=O)NCCN1CCCC1)c1ccc(OS(=O)(=O)C(F)(F)F)cc1.Cl`, for which, in series [1], the inhibition at 0.01 µM turned out to be 65 ± 18%. Moreover, the inhibition at 0.001 µM in series [2] came to 52 ± 12%. Also, in series [3], the fraction unbound at 20 min, 50 μg/mL was 0.296. For the same compound, in series [4], the half-life is 3.4 h and the bioavailability stood at 80%. Further, the “PMN migration by GROα % of inhibition” value in series [5] is reported as “Inactive^#”.
